ChEMBL document CHEMBL1124525, “Hexestrol-linked cytotoxic agents: synthesis and binding affinity for estrogen receptors” (J Med Chem, 1989)

Molecular target: T1, Estrogen receptor (Rattus norvegicus) (UniProt P06211+Q62986)
Assay: Relative binding affinity for estrogen receptor
Type: protein assay

| relative binding affinity (RBA) | Structure (SMILES) |
| --- | --- |
| 0.1 | CC[C@@](C)(c1ccc(O)cc1)[C@H](CCCC(=O)O)c1ccc(O)cc1 |

Molecular target: T1, Estrogen receptor (Rattus norvegicus)
Assay: Binding affinity to estrogen receptor
Type: protein assay

| relative binding affinity (RBA) | Structure (SMILES) |
| --- | --- |
| 1 | CC[C@@](C)(c1ccc(O)cc1)[C@H](CCCCOC(C)=O)c1ccc(O)cc1 |
| 0.1 | CC[C@@](C)(c1ccc(O)cc1)[C@H](CCCC(=O)NCCO)c1ccc(O)cc1 |
| 0.2 | CC[C@@](C)(c1ccc(O)cc1)[C@H](CCCC(=O)N(CCO)CCO)c1ccc(O)cc1 |
| 1.5 | CC[C@@](C)(c1ccc(O)cc1)[C@H](CCCCCl)c1ccc(O)cc1 (relative stereo) |
| 0.9 | CC[C@@](C)(c1ccc(O)cc1)[C@H](CCCCN(CCO)CCO)c1ccc(O)cc1 (relative stereo) |
| 0.1 | CC[C@@](C)(c1cc(Br)c(O)c(Br)c1)[C@H](CCCCO)c1ccc(O)c(Br)c1 |
| 1 | C=CCCC[C@H](c1ccc(O)cc1)[C@@](C)(CC)c1ccc(O)cc1 (relative stereo) |
| 1 | CC[C@@](C)(c1ccc(O)cc1)[C@H](CCCCBr)c1ccc(O)cc1 (relative stereo) |
| 0.9 | CC[C@@](C)(c1ccc(O)cc1)[C@H](CCCC(N)=O)c1ccc(O)cc1 |
| 1 | CC[C@@](C)(c1ccc(O)cc1)[C@H](CCCCNC(=O)N(CCCl)N=O)c1ccc(O)cc1 |
| 1 | CC[C@@](C)(c1ccc(O)cc1)[C@H](CCCCOCCOCCOCCO)c1ccc(O)cc1 |
| 1 | CC[C@@](C)(c1ccc(O)cc1)[C@H](CCCCC=O)c1ccc(O)cc1 |
| 0.3 | CC[C@@](C)(c1ccc(O)cc1)[C@H](CCCCOS(C)(=O)=O)c1ccc(O)cc1 |
| 1 | CCCC[C@H](c1ccc(O)cc1)[C@@](C)(CC)c1ccc(O)cc1 (relative stereo) |
| 2 | CC[C@@](C)(c1ccc(O)cc1)[C@H](CCCCN)c1ccc(O)cc1 (relative stereo) |
| 1 | CC[C@@](C)(c1ccc(O)cc1)[C@H](CCCCOCCOCCCl)c1ccc(O)cc1 (relative stereo) |
| 0.3 | CC[C@@](C)(c1ccc(O)cc1)[C@H](CCCCOCCCl)c1ccc(O)cc1 (relative stereo) |
| 1.5 | CC[C@@](C)(c1ccc(O)cc1)[C@H](CCCCO)c1ccc(O)cc1 (relative stereo) |
| 0.2 | CC[C@@](C)(c1ccc(O)cc1)[C@H](CCCC(=O)NC)c1ccc(O)cc1 |
| 0.5 | CC[C@@](C)(c1ccc(O)cc1)[C@H](CCCCOCCOCCOCCCl)c1ccc(O)cc1 (relative stereo) |
| 1 | CC[C@@](C)(c1ccc(O)cc1)[C@H](CCCCOCCO)c1ccc(O)cc1 |
| 1 | CC[C@@](C)(c1ccc(O)cc1)[C@H](CCCC=O)c1ccc(O)cc1 |
| 0.2 | CC[C@@](C)(c1ccc(O)cc1)[C@H](CCCC(=O)OC)c1ccc(O)cc1 |
| 0.2 | CC[C@@](C)(c1ccc(O)cc1)[C@H](CCCCI)c1ccc(O)cc1 (relative stereo) |
| 0.2 | CCSCCCCC(c1ccc(O)cc1)C(C)(CC)c1ccc(O)cc1 (stereo unspecified) |
| 1 | CC[C@@](C)(c1ccc(O)cc1)[C@H](CCCCOCCOCCO)c1ccc(O)cc1 |
| 0.4 | CC[C@@](C)(c1ccc(O)cc1)[C@H](CCCCSCCO)c1ccc(O)cc1 (relative stereo) |

| Structure (SMILES) | relative binding affinity (RBA) |
| --- | --- |
| CC[C@](C)(c1ccc(O)cc1)[C@H](CCCCNCCCl)c1ccc(O)cc1 (relative stereo) | 1 |
| CC[C@](C)(c1ccc(O)cc1)[C@H](CCCCN(CCCl)CCCl)c1ccc(O)cc1 (relative stereo) | 2.5 |
| CC[C@@](C)(c1ccc(O)cc1)[C@H](CCCCN1CCCOP1(=O)N(CCCl)CCCl)c1ccc(O)cc1 (relative stereo) | 1 |
